This note sets out measurements from patent publication US10214507B2, “Carbazole-containing amides, carbamates, and ureas as cryptochrome modulators” (Reset Therapeutics, Inc., priority 2014, dated 2019).

Experiment [1] relates to cortisone-induced insulin resistance in Sprague Dawley rats. The experiment is described as follows: Cortisone induced insulin resistance in rats. It is filed as in vivo, rat. Particulars: cortisone 30 mg/kg sc + 30 mg/kg po. As to the method: Animals were dosed with cortisone (30 mg/kg sc qd) in combination with test compounds for 6 days and then terminated 27 hours after the final dose of cortisone. A reference standard (Mifepristone) was also included. Cortisone 21-acetate (Sigma C-3130) was supplied by RenaSci and administered using a dose volume of 5 ml/kg via the subcutaneous route as a fine suspension in 1% methylcellulose. […] Mifepristone (Sigma M8046) was provided by RenaSci.
Glucose and insulin determinations were performed on plasma samples obtained from a tail vein bleed taken after a 12 h fast, approximately 27 h after the last cortisone dose. Animals were then terminated and a terminal (cardiac) blood sample taken from which plasma was prepared.
Thirty four male Sprague Dawley rats (weight range 200-250 g) were ordered from Charles River, Margate, Kent, UK. […] Subsequently, animals underwent a 3 day baseline period during which they were dosed once daily with vehicle at t=0 h (07:00). […] Body weight was recorded immediately before dosing began at 07:00 (t=0 h).
On Day 6 of dosing rats were fasted for 12 h beginning at 22:30 (timed to coincide with the Day 7 termination). […] At 10:30 on Day 7, 27 h after the final dose of cortisone, a blood sample (300 μl) was taken from the lateral tail vein into tubes containing EDTA (Sarstedt 16.444). The blood was centrifuged and resultant plasma aliquot stored at −75° C. The animals were euthanized by CO2 asphyxiation followed by cervical dislocation. Terminal blood (approximately 10 ml) was collected by cardiac puncture into tubes containing EDTA (Sarstedt 5 ml 32.332) and then centrifuged and plasma stored at −75° C. The tail vein plasma was analyzed for glucose (n=2) using a commercial clinical reagent (Thermoelectron Infinity glucose reagent (TR15421) and for insulin (n=1) using the Mercodia ultrasensitive rat insulin rat ELISA (10-1251-10).
Plasma glucose and insulin were analyzed by robust regression or general linear model with treatment as a factor and bleeding order and baseline body weight as covariates. A log transformation was used if appropriate. Appropriate multiple comparison tests (two-tailed) were used to determine significant differences from the vehicle group and from the Cortisone group. P<0.05 was considered to be statistically significant.

In experiment [2] the test system is stable U20S reporter cells harboring Per2-dLuc. The experiment is described as follows: Per2 assay for evaluating the potency of test compounds (circadian luciferase reporter). The class given is cell-based. Particulars: amplitude of Per2-dLuc luminescence vs log concentration. In outline: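 U2OS Per2-dLuc cells grown 48 h at 37 °C, then synchronized with 5 μM forskolin plus 1 mM luciferin and dosed with 3-fold compound dilutions.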
Background: A reporter such as luciferase makes a cellular process visible.

Experiment [3] concerns core clock gene mRNAs in livers of ICR mice. The experiment is described as follows: Four day study, liver clock gene mRNA by RT-qPCR, ICR mice. It is filed as in vivo, mouse. Conditions: 50 mg/kg PO BID 4 days; for liver Per2 expression: ICR mice, ZT6. On the procedure: Male ICR mice (weighing 30-35 g), obtained from Charles River Laboratories (Hollister, CA), were used for the experiment following at least 3 days of acclimation. Mice were dosed with vehicle (WFI or 10% Kolliphor) or compound (50 mg/kg, dose volume 5 mL/kg, PO) for 4 days BID (twice a day), beginning in the afternoon of the first day. The last dose of compound or vehicle was administered on the morning of harvest. On the day of harvest (6 hours following the final dose), mice were euthanized by CO2 asphyxiation and 50 mg of liver tissue was excised and placed in a tube containing 500 μl of RNA later.
E.Z.N.A.® HP Total RNA Isolation Kits (R6812-01 and the protocol described in the Manual, Revised 2010) were utilized to prepare and isolate RNA from the liver samples. To prepare the RNA samples, 10-30 mg of sample was removed from RNA-Later and placed in a 1.5 ml microfuge tube. GTC lysis buffer (700 μl) was added to the tissue, which was homogenized with a rotor-stator homogenizer (e.g. Tissue-Tearor, Model #985370 BioSpec Products with 4.5 mm probe, Cat. #985370-04), and then centrifuged at full speed (>13,000×g) for 5 minutes. The cleared supernatant was transferred by pipetting to a DNA Clearance Column Pre-inserted in a 2 mL Collection Tube. The assembled column was centrifuged at 13,000×g for 1 minute, and the flow-through was saved. An equal volume (700 μl) of 70% ethanol was added to the lysate and mixed. The sample was then applied to a HiBind RNA spin column placed into a 2 ml collection tube, which was centrifuged at 10,000×g for 60 seconds at room temperature. RNA Wash Buffer I (250 μl) was added by pipetting directly onto a new HiBind RNA column inserted in a 2 ml collection tube. The assembled column was centrifuged at 10,000×g for 60 seconds. The RNA column was placed into a new 2 ml collection tube. DNase I stock solution is pipetted (75 μl) directly onto the surface of the HiBind RNA resin in each column (Using DNAse Digestion with RNase Free DNase Set (E1091): for each HiBind RNA column, the DNase I stock solution was prepared as followed: E.Z.N.A.® DNase I Digestion Buffer 73.5μl, RNase Free DNase I (20 Kunitz/μl) 1.5 μl=Total Volume 75 μl.). The column with bound RNA was incubated at room temperature (25-30° C.) for 15 minutes. RNA Wash Buffer I (500 μl) was added to the column and placed on a bench top for 2 minutes. After centrifuging at 10,000×g for 60 seconds, discarding the flow-through, 500 μl of RNA Wash Buffer II was added and centrifuged at 10,000×g for 60 seconds. Another 500 μl of RNA Wash Buffer II was added and the column assembly was centrifuged at 10,000×g for 60 seconds. The column was centrifuged for 2 minutes at maximum speed to completely dry the HiBind matrix. The column was placed in a clean 1.5 ml microcentrifuge tube and 40-70 μl of molecular biology grade water is added. After sitting for 1 minute, the column was centrifuged for 2 minutes at maximum speed to elute the RNA. The isolated RNA was collected into the collection tube.
RediPlate 96 RiboGreen RNA Quantification Kit (Invitrogen) RediPlate standard curve was prepared by transferring 20 μl reconstituted RNA standard to a RediPlate well reconstituted in 180 μl RediPlate TE buffer. For liver RNAs prepared from 30-100 mg of tissue using a kit similar to the Omega Bio-Tek HP Total RNA Kit and eluted in RNAse-free water in a volume of 50 μl (microliters), 5 μl of the total RNA is diluted in 195 μl of RediPlate TE buffer (1:40 dilution of RNA), mix. After transferring 5 μl to RediPlate well reconstituted in 195 μl TE buffer and incubating 10 min. at RT, Fluorescence Intensity of wells with standards and samples were read in a Tecan M200 with Excitation set at 480 nm and Emission set at 520 nm with the gain set to −70%. Alternatively, one can use the FlexStation 3 with Ex 488 nm and Em 525 nm and a Cutoff of 515 nm.
For orientation: In qPCR the cycle at which signal appears reflects the starting amount.

Experiment [4] has as its system C57/Bl6J DIO mice. The experiment is described as follows: 7 day dosing in diet-induced obesity (DIO) mouse model. The class given is in vivo. From the text: (§1) Male C57/Bl6J DIO mice were obtained from The Jackson Laboratory (Sacramento, Calif.). […] Animals were accustomed to these conditions for at least 2 weeks before experimentation and used at approximately 24 weeks of age.
(§2) Significance was accepted when p<0.05.

In experiment [5] the test system is C57/Bl6J DIO mice. In words: Increasing dosages of Compound 72 for 7 days in diet-induced obesity mouse model. It is filed as in vivo. Conditions: positive control 30 mg/kg QD PO 7 days.
Text: as §1, §2
Male C57/Bl6J DIO mice were obtained from The Jackson Laboratory (Sacramento, Calif.). […] Animals were accustomed to these conditions for at least 2 weeks before experimentation and used at approximately 26 weeks of age.

For experiment [6], the system named is db/db mouse model of type II diabetes. Conditions: db/db mice, positive control 30 mg/kg QD PO 7 days.
Procedure: Male db/db mice homozygous for Lepr^db (6 weeks of age), were obtained from The Jackson Laboratory (Bar Harbor, Me.). Mice were group housed on a normal light/dark cycle (lights on: 07:00-19:00 h) with ad libitum access to a standard pelleted mouse diet and water. Animals were accustomed to these conditions for 2 weeks before experimentation. […] At 10:30 pm on the evening prior to endpoint measurement, mice were placed into clean cages and given free access to water, but not food for a period of 12 hours before the fasting blood glucose measurement. On the final day of the study, animals were dosed as normal, and then underwent a tail cut injury 2 hours prior to measurement of fasting blood glucose, to allow recovery from any stress the procedure might cause. Fasting blood glucose (FBG) was assessed from the animals at 10:30 am using an AlphaTRAK glucometer (Abbott Laboratories, USA). Following the FBG measurement blood was collected from each mouse, using a tail milking technique, into a capillary tube. Capillary tubes were centrifuged in a hematocrit (BD Triac 0200) and the resultant plasma transferred to an eppendorff. This sample, labelled as t=Ohr, was frozen at −80° C. to allow later measurement of insulin. At 11:30 am each animal was dosed with 0.5 g/kg of glucose, then blood glucose was measured at t=15, 30, 60, 90 and 120 minutes after glucose load. At the end of the OGTT blood was collected for a t=2 hr insulin determination as described above.
Fasting blood glucose values and glucose measurements taken during the OGTT were averaged and graphed (GraphPad Prism, GraphPad Software, La Jolla, Calif.). The area under the curve (AUC) was calculated for each individual animal. Plasma insulin levels were determined using an Ultrasensitive Insulin ELISA (ALPCO, Salem, N.H.). […] Insulin data was also represented in GraphPad Prism format. Statistical analysis was performed using one-way ANOVA followed by the appropriate post-test. Significance was accepted when p<0.05. Data are presented as mean and S.E.M.

Regarding `CC#C[C@]1(O)CC[C@H]2[C@@H]3CCC4=CC(=O)CCC4=C3[C@@H](c3ccc(N(C)C)cc3)C[C@@]21C` [Mifepristone, mifepristone, reference compound], the HOMA-IR in experiment [1] (insulin resistant rats) is 29.99+/−2.54 units. In addition, in experiment [1] (rats), the fasted plasma insulin is 3.62 ± 0.29 ng/mL. Further, the fasted plasma glucose in experiment [1] (rats, unit printed as ng/mL) worked out at 7.43 ± 0.27 ng/mL.
Consider `O=C1C2CCC(C2)N1CC(O)Cn1c2ccc(F)cc2c2cc(F)ccc21` (stereo not shown) [Compound 48, 2-(3-(3,6-difluoro-9H-carbazol-9-yl)-2-hydroxypropyl)-2-azabicyclo[2.2.1]heptan-3-one], for which the EC50 in experiment [2] stood at 0.12 µM. Further, in experiment [3] (ICR mice liver), the Cry2 transcripts result is reported as “decrease” and the “increase in Bmal1 mRNA at ZT6” value is reported as 8 fold. For the same compound, the “liver Per2 expression” value in experiment [3] was “suppression”.
Regarding `COC1CCCN(CC(O)Cn2c3ccc(F)cc3c3cc(F)ccc32)C1=O` (stereo not shown) [Compound 57, 1-(3-(3,6-difluoro-9H-carbazol-9-yl)-2-hydroxypropyl)-3-methoxypiperidin-2-one], a half-maximal response in experiment [2] (EC50) required 0.329 µM. For the same compound, the “increase in Bmal1 mRNA at ZT6” value in experiment [3] (ICR mice liver) is recorded as no less than 2 fold. Besides, the “liver Per2 expression” value in experiment [3] is given as “suppression”.
On to `CN(CCOc1ccc(CC2SC(=O)NC2=O)cc1)c1ccccn1` (stereo not shown) [Rosiglitazone, reference compound], for which the HOMA-IR in experiment [4] (30 mg/kg PO 7 days) is reported as 24.60+/−1.42 units; in experiment [6] it was 50.58+/−3.52 units. The entries for the “plasma insulin at t=0” value in experiment [4] (30 mg/kg PO 7 days) and in experiment [6] were 2.70 ± 0.12 ng/mL and 3.05 ± 0.14 ng/mL, respectively. Further, the figures for the “plasma insulin at t=2 hr” value in experiment [4] (30 mg/kg PO 7 days) and in experiment [6] were 2.30 ± 0.06 ng/mL and 2.28 ± 0.08 ng/mL, respectively. Besides, the fasting blood glucose in experiment [4] (positive control 30 mg/kg PO 7 days) was 153.9 ± 5.05 mg/dL; in experiment [5] it was 161.1 ± 8.06 mg/dL; in experiment [6], 280.4 ± 13.66 mg/dL.

In general, EC50 refers to the concentration giving half of the maximal effect. Lower therefore signals greater potency.
